# Measurements reported in patent EP2308493A1, “AMELIORATING OR THERAPEUTIC AGENT FOR DYSLIPIDEMIA” (Mochida Pharmaceutical Co., Ltd., priority 2008, dated 2010).
# How the values were obtained:
# [1] = system: high sucrose diet-fed hamster; experiment: Effectiveness in high sucrose diet-fed hamster (plasma lipid change rate); format: in vivo, Syrian hamsters; conditions: for Change rate Non-HDL Cho / Change rate TG / Change rate Total Cho: 14th day, versus control group
# Method: Pharmacological action of EPA-E and/or tocopherol nicotinate on plasma lipids was confirmed by using hamsters that had been fed high sucrose diet. 6 week old male Syrian hamsters (Japan SLC, Inc.) were allowed to freely take fish meal-less F-1 diet (F-1, Funabashi Farm) under 12 hour light-dark cycles at 23°C for 2 weeks, and then, high sucrose diet (D11511, Research Diet Inc.) for 2 weeks. 6 groups (each comprising 6 animals), namely, control group, EPA-E 300 group, EPA-E 1000 group, tocopherol nicotinate 1000 group (hereinafter referred to as TN1000 group), low dose combination group, and high dose combination group were set. During the feeding of the high sucrose diet, the EPA-E 300 group was administered with 300 mg/kg of EPA-E (Mochida Pharmaceutical Co.); the EPA-E 1000 group was administered with 1000 mg/kg of EPA-E; the TN1000 group was administered with 1000 mg/kg of tocopherol nicotinate (Wako Pure Chemical Industries, Ltd.); the low dose combination group was administered with 300 mg/kg of EPA-E and 1000 mg/kg of tocopherol nicotinate; and the high dose combination group was administered with 1000 mg/kg of EPA-E and 1000 mg/kg of tocopherol nicotinate after suspending in 5% aqueous solution of gum arabic. The control group was orally administered with 5% aqueous solution of gum arabic once a day. Blood was collected one day before the start of the administration and on the 14th day of the administration, and plasma was separated by centrifugation. Plasma TG, total Cho, and HDL Cho concentration were respectively measured using a biochemical analyzer (A0400, Olympus Corporation) and commercially available assay reagent (Wako Pure Chemical Industries, Ltd.). The nan-HDL Cho concentration (total Cho-HDL Cho) was also calculated. No statistically significant difference was found in the plasma lipid concentrations of various groups on the day before the start of the administration. The plasma TG, total Cho, and non-HDL Cho concentration of each group at 14th day of the drug administration was compared with the corresponding values of the control group, and change rate was calculated by the following equation: Change rate (%) = [{(lipid concentration of each group)-(lipid concentration of control group)}x100]/(lipid concentration of the control group) [formula] For the combination group, sum of the change rate of the EPA-E sole administration group and the change rate of the tocopherol nicotinate sole administration group is shown in Table 1 as the theoretical change rate of the combination group. When the change rate of the actual measurement was negative and the value was lower than the theoretical value, synergistic effect by the combined use in the lipid decrease was deemed to have been realized.
# hypertriglyceridemia rat = experiment: Effectiveness in hypertriglyceridemia rat; format: in vivo, Zucker Diabetic Fatty rat; conditions: 4 weeks; EPA-E 300 mg/kg or tocopherol nicotinate 100 mg/kg orally once a day as emulsion; compared to control group
# Method: 6 week old male Zucker Diabetic Fatty rat (Charles River Japan) are allowed to freely take diabetes-inducing diet (Purina 5008 (crude protein content, 23.5%; crude lipid content, 6.5%)) under 12 hour light-dark cycles at 23°C. 4 groups (each comprising 10 animals), namely, control group; EPA-E group (EPA-E administration); tocopherol nicotinate group (tocopherol nicotinate administration); and combination group (EPA-E administration + tocopherol nicotinate administration) are set. During the feeding, the EPA-E group is administered with 300 mg/kg of EPA-E; the tocopherol nicotinate group is administered with 100 mg/kg of tocopherol nicotinate; and the combination group is administered with 300 mg/kg of EPA-E and 100 mg/kg of tocopherol nicotinate. The administration is conducted orally once a day. The drugs are administered by preparing an emulsion preparation according to Preparation Example 8. The control group is orally administered with base of the emulsion preparation of Preparation Example 8 once a day. At the start of the administration and after 4 weeks of feeding, auricle skin temperature is measured by thermography and blood is collected for plasma biochemical test.
# Cho diet rabbit = experiment: Effectiveness in Cho diet rabbit (plasma lipids, auricle skin temperature, platelet collagen aggregation); format: in vivo, Japan white male rabbits; conditions: HCD diet 12 weeks; EPA-E 1000 mg/kg or tocopherol nicotinate 300 mg/kg orally once a day; compared to control group
# Excerpt: Pharmacological action of EPA-E and/or tocopherol nicotinate on plasma lipids, auricle skin temperature, and platelet aggregation is confirmed by using rabbits that have been fed with Cho diet (hereinafter referred to as "HCD diet") known to develop a dyslipidemia. Japan white male rabbits (Funabashi Farm) having a body weight of 2.7 to 3.3 kg are allowed to freely take 100 g/day of normal diet (F-1, Funabashi Farm) or HCD diet (RC-4 supplemented with 1% Cho, Oriental Yeast Co.,Ltd.) for 12 weeks under 12 hour light-dark cycles at 23°C. 5 groups (each comprising 10 animals), namely, normal group (normal diet feeding); control group (HCD diet feeding); EPA-E group (HCD diet feeding + EPA-E administration); tocopherol nicotinate group (HCD diet feeding + tocopherol nicotinate administration); and combination group (HCD diet feeding + EPA-E administration + tocopherol nicotinate administration) are set. During the feeding, the EPA-E group is administered with 1000 mg/kg of EPA-E; the tocopherol nicotinate group is administered with 300 mg/kg of tocopherol nicotinate; and the combination group is administered with 1000 mg/kg of EPA-E and […] of tocopherol nicotinate after suspending in 5% aqueous solution of gum arabic. The administration is conducted orally once a day. The normal group and the control group are orally administered with 5% aqueous solution of gum arabic once a day. At the start of the administration and after 12 weeks of feeding, auricle skin temperature is measured by thermography and blood is collected for plasma biochemical tests. Platelet collagen aggregation is also checked after 12 weeks of feeding by measuring absorbance.
# [2] = system: lauric acid-induced peripheral arterial occlusive hypertriglyceridemia rat; experiment: Effectiveness in lauric acid-induced peripheral arterial occlusive hypertriglyceridemia rat (lesion score); format: in vivo, Wister rats; conditions: 2 weeks after the surgery; EPA-E 300 mg/kg or tocopherol nicotinate 100 mg/kg orally once a day; compared to control group
# Method: 4 week old male Wister rats (Japan SLC, Inc.) are allowed to freely take high sucrose diet (AIN-76A, PURINA MILLS) for 4 weeks under 12 hour light-dark cycles at 23°C. 5 groups (each comprising 10 animals), namely, sham surgery group; control group, EPA-E group (EPA-E administration); tocopherol nicotinate group (tocopherol nicotinate administration); and combination group (EPA-E administration + tocopherol nicotinate administration) are set. During the feeding, the EPA-E group is administered with 300 mg/kg of EPA-E; the tocopherol nicotinate group is administered with 100 mg/kg of tocopherol nicotinate; and the combination group is administered with 300 mg/kg of EPA-E and 100 mg/kg of tocopherol nicotinate after suspending in 5% aqueous solution of gum arabic. The administration is conducted orally once a day. […] Progress of the lesion of the limbs on the peripheral side of the injection site is scored for wet gangrene and dry gangrene, and the lesion is visually inspected with naked eyes every day until 2 weeks after the surgery. Progress of the lesion is scored by the following criteria: • Score 0: no change, score 1: the lesion is limited to nail, score 2: the lesion is limited to finger, score 3: the lesion is expanded to footpad, and score 4: the lesion is expanded to lower limb.
smiles,measurement,setting,value
"CC/C=C\C/C=C\C/C=C\C/C=C\C/C=C\CCCC(=O)OCC [EPA-E, Ethyl icosapentaenoate]",Change rate Non-HDL Cho,[1]; 300 mg/kg orally,14.8%
same,Change rate TG,[1]; 300 mg/kg orally,2.7%
same,Change rate Total Cho,[1]; 300 mg/kg orally,11.1%
same,Change rate Non-HDL Cho,[1]; 1000 mg/kg orally,11.1%
same,Change rate TG,[1]; 1000 mg/kg orally,19.6%
same,Change rate Total Cho,[1]; 1000 mg/kg orally,2.7%
Cc1c(C)c2c(c(C)c1OC(=O)c1cccnc1)CCC(C)(CCCC(C)CCCC(C)CCCC(C)C)O2 (centres unmarked) [tocopherol nicotinate],plasma TG concentration,hypertriglyceridemia rat,suppressed increase
same,plasma free fatty acid concentration,hypertriglyceridemia rat,suppressed increase
same,decrease of the auricle skin temperature,Cho diet rabbit,also suppressed
same,enhancement of the platelet collagen aggregation,Cho diet rabbit,also suppressed
same,plasma TG concentration,Cho diet rabbit,suppressed increase
same,plasma total Cho concentration,Cho diet rabbit,suppressed increase
same,"score of progress of the lesion (wet and dry gangrene, 0-4)",[2],improved scores
same,Change rate Non-HDL Cho,[1]; 1000 mg/kg orally,-11.6%
same,Change rate TG,[1]; 1000 mg/kg orally,-23.3%
same,Change rate Total Cho,[1]; 1000 mg/kg orally,-3.7%
same,"lipid reducing action (plasma TG, total Cho, non-HDL Cho)","[1]; high sucrose diet, 14 days oral administration",the action of reducing the TG and non-HDL Cho was found
